# Measurements taken from patent publication US9029391B2 (priority 2011, dated 2015).
# Counter-ions that a name gives are not always drawn.
# System: HIV
# Assay: MT4 Assay (anti-HIV activity)
# Assay type: cell-based
# Settings: Human immunodeficiency virus 1, 96 h, read-out: HIV MT4 Assay IC50, HTLV-1 transformed cell line MT-4, cell titer glo, 10 point dose response curve
# Summary of the method: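 MT-4 cells (HTLV-1 transformed) were used for antiviral activity and cytotoxicity, run in parallel, with luminescence read by CellTiter-Glo 96 hours later. Percent inhibition was expressed against the no-compound control. IC50s came from 10-point curves of 3-4-fold serial dilutions spanning >1000-fold.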
row,SMILES,IC50 [µM]
1,"Cc1c(-c2c(C(OC(C)(C)C)C(=O)O)n(C)c(=O)c3cc(OCc4ccc(F)cc4)ccc23)cc(F)c2c1CCCO2 (stereo not drawn) [Example 145, 2-(tert-butoxy)-2-[4-(8-fluoro-5-methyl-3,4-dihydro-2H-1-benzopyran-6-yl)-7-[(4-fluorophenyl)methoxy]-2-methyl-1-oxo-1,2-dihydroisoquinolin-3-yl]acetic acid]",0.11
2,"Cc1c(-c2c(C(OC(C)(C)C)C(=O)O)n(C)c(=O)c3cc(OCc4ccc(OC(F)(F)F)cc4)ccc23)ccc2c1CCCO2 (stereo not drawn) [Example 146, 2-(tert-butoxy)-2-[2-methyl-4-(5-methyl-3,4-dihydro-2H-1-benzopyran-6-yl)-1-oxo-7-{[4-(trifluoromethoxy)phenyl]-methoxy}-1,2-dihydroisoquinolin-3-yl]acetic acid]",0.26
3,"Cc1c(-c2c([C@H](OC(C)(C)C)C(=O)O)n(C)c(=O)c3cc(OCc4ccc(F)cc4)ccc23)ccc2c1CCCO2 [Example 147, (2S)-2-(tert-butoxy)-2-{7-[(4-fluorophenyl)methoxy]-2-methyl-4-(5-methyl-3,4-dihydro-2H-1-benzopyran-6-yl)-1-oxo-1,2-dihydroisoquinolin-3-yl}acetic acid]",0.02
4,"Cc1c(-c2c([C@H](OC(C)(C)C)C(=O)O)n(C)c(=O)c3cc(OCc4ccc(F)cc4F)ccc23)ccc2c1CCCO2 [Example 148, (2S)-2-(tert-butoxy)-2-{7-[(2,4-difluorophenyl)methoxy]-2-methyl-4-(5-methyl-3,4-dihydro-2H-1-benzopyran-6-yl)-1-oxo-1,2-dihydroisoquinolin-3-yl}acetic acid]",0.05
5,"CC1CCOc2ccc(-c3c(C(OC(C)(C)C)C(=O)O)n(C)c(=O)c4ccccc34)cc21 (stereo not drawn) [Example 149, [(1,1-dimethylethyl)oxy][2-methyl-4-(4-methyl-3,4-dihydro-2H-chromen-6-yl)-1-oxo-1,2-dihydro-3-isoquinolinyl]acetic acid]",1.17
6,"Cc1c(-c2c(C(OC(C)(C)C)C(=O)O)n(C)c(=O)c3ccccc23)cc(F)c2c1CCCO2 (stereo not drawn) [Example 150, [(1,1-dimethylethyl)oxy][4-(8-fluoro-5-methyl-3,4-dihydro-2H-chromen-6-yl)-2-methyl-1-oxo-1,2-dihydro-3-isoquinolinyl]acetic acid]",0.16
7,"Cn1c(C(OC(C)(C)C)C(=O)O)c(-c2ccc3c(c2)CCC3)c2ccccc2c1=O (stereo not drawn) [Example 152, 2-(tert-butoxy)-2-(4-(2,3-dihydro-1H-inden-5-yl)-2-methyl-1-oxo-1,2-dihydroisoquinolin-3-yl)acetic acid]",0.43
8,"Cn1c(C(OC(C)(C)C)C(=O)O)c(-c2ccc3ncsc3c2)c2ccccc2c1=O (stereo not drawn) [Example 153, 2-(4-(benzo[d]thiazol-6-yl)-2-methyl-1-oxo-1,2-dihydroisoquinolin-3-yl)-2-(tert-butoxy)acetic acid]",3.88
9,"Cn1c(C(OC(C)(C)C)C(=O)O)c(-c2ccc(Cl)cc2)c2ccccc2c1=O (stereo not drawn) [Example 154, [4-(4-chlorophenyl)-2-methyl-1-oxo-1,2-dihydro-3-isoquinolinyl][(1,1-dimethylethyl)oxy]acetic acid]",2.09
10,"Cc1occc1-c1c(C(OC(C)(C)C)C(=O)O)n(C)c(=O)c2ccccc12 (stereo not drawn) [Example 155, [(1,1-dimethylethyl)oxy][2-methyl-4-(2-methyl-3-furanyl)-1-oxo-1,2-dihydro-3-isoquinolinyl]acetic]",13.3
11,"Cn1c(C(OC(C)(C)C)C(=O)O)c(-c2ccccc2)c2ccccc2c1=O (stereo not drawn) [Example 156, [(1,1-dimethylethyl)oxy](2-methyl-1-oxo-4-phenyl-1,2-dihydro-3-isoquinolinyl)acetic acid]",0.8
12,"Cn1cc(-c2c(C(OC(C)(C)C)C(=O)O)n(C)c(=O)c3ccccc23)cn1 (stereo not drawn) [Example 157, [(1,1-dimethylethyl)oxy][2-methyl-4-(1-methyl-1H-pyrazol-4-yl)-1-oxo-1,2-dihydro-3-isoquinolinyl]acetic acid]",41.6
13,"Cn1c(C(OC(C)(C)C)C(=O)O)c(-c2cc3c4c(c2)CCCN4CCC3)c2ccccc2c1=O (stereo not drawn) [Example 158, [(1,1-dimethylethyl)oxy][2-methyl-1-oxo-4-(2,3,6,7-tetrahydro-1H,5H-pyrido[3,2,1-ij]quinolin-9-yl)-1,2-dihydro-3-isoquinolinyl]acetic acid]",50
14,"COc1ccc(Cc2ccc3c(-c4ccc(C)c(C)c4)c(C(OC(C)(C)C)C(=O)O)n(C)c(=O)c3c2)cc1 (stereo not drawn) [Example 171, [(1,1-dimethylethyl)oxy](4-(3,4-dimethylphenyl)-2-methyl-7-{[4-(methyloxy)phenyl]methyl}-1-oxo-1,2-dihydro-3-isoquinolinyl)acetic acid]",1.3
15,"Cc1ccc(-c2c(C(OC(C)(C)C)C(=O)O)n(C)c(=O)c3cc(CC(C)C)ccc23)cc1C (stereo not drawn) [Example 172, [(1,1-dimethylethyl)oxy][4-(3,4-dimethylphenyl)-2-methyl-7-(2-methylpropyl)-1-oxo-1,2-dihydro-3-isoquinolinyl]acetic acid]",0.27
16,"Cc1ccc(-c2c(C(OC(C)(C)C)C(=O)O)n(C)c(=O)c3cc(C(N)=O)ccc23)cc1C (stereo not drawn) [Example 178, [7-(aminocarbonyl)-4-(3,4-dimethylphenyl)-2-methyl-1-oxo-1,2-dihydro-3-isoquinolinyl][(1,1-dimethylethyl)oxy]acetic acid]",50
17,"Cc1ccc(-c2c(C(OC(C)(C)C)C(=O)O)n(C)c(=O)c3cc(CN)ccc23)cc1C (stereo not drawn) [Example 179, [7-(aminomethyl)-4-(3,4-dimethylphenyl)-2-methyl-1-oxo-1,2-dihydro-3-isoquinolinyl][(1,1-dimethylethyl)oxy]acetic acid-TFA salt]",50
18,"Cc1ccc(-c2c(C(OC(C)(C)C)C(=O)O)n(C)c(=O)c3cc(CNCc4ccc5c(-c6ccc(C)c(C)c6)c(C(OC(C)(C)C)C(=O)O)n(C)c(=O)c5c4)ccc23)cc1C (stereo not drawn) [Example 180, 2,2′-(iminobis{methanediyl[4-(3,4-dimethylphenyl)-2-methyl-1-oxo-1,2-dihydroisoquinoline-7,3-diyl]})bis{[(1,1-dimethylethyl)oxy]acetic acid}]",12.4
19,Cc1ccc(-c2c(C(OC(C)(C)C)C(=O)O)n(C)c(=O)c3cc(CN4CCOCC4)ccc23)cc1C (stereo not drawn) [Example 181],0.27
20,"Cc1ccc(-c2c(C(OC(C)(C)C)C(=O)O)n(C)c(=O)c3cc(CN(Cc4ccccn4)Cc4ccccn4)ccc23)cc1C (stereo not drawn) [Example 182, 2-(7-((bis(pyridin-2-ylmethyl)amino)methyl)-4-(3,4-dimethylphenyl)-2-methyl-1-oxo-1,2-dihydroisoquinolin-3-yl)-2-(tert-butoxy)acetic acid]",1.38
21,"Cc1ccc(-c2c(C(OC(C)(C)C)C(=O)O)n(C)c(=O)c3cc(CNCc4ccccn4)ccc23)cc1C (stereo not drawn) [Example 183, 2-(tert-butoxy)-2-(4-(3,4-dimethylphenyl)-2-methyl-1-oxo-7-(((pyridin-2-ylmethyl)amino)methyl)-1,2-dihydroisoquinolin-3-yl)acetic acid]",3.61
22,"CC(=O)NCc1ccc2c(-c3ccc(C)c(C)c3)c(C(OC(C)(C)C)C(=O)O)n(C)c(=O)c2c1 (stereo not drawn) [Example 184, 2-(7-(acetamidomethyl)-4-(3,4-dimethylphenyl)-2-methyl-1-oxo-1,2-dihydroisoquinolin-3-yl)-2-(tert-butoxy)acetic acid]",31.4
23,"CCNC(=O)NCc1ccc2c(-c3ccc(C)c(C)c3)c(C(OC(C)(C)C)C(=O)O)n(C)c(=O)c2c1 (stereo not drawn) [Example 185, 2-(tert-butoxy)-2-(4-(3,4-dimethylphenyl)-7-((3-ethylureido)methyl)-2-methyl-1-oxo-1,2-dihydroisoquinolin-3-yl)acetic acid]",37.4
24,"Cc1ccc(-c2c(C(OC(C)(C)C)C(=O)O)n(C)c(=O)c3cc(CNC(=O)C(=O)O)ccc23)cc1C (stereo not drawn) [Example 186, 2-(tert-butoxy)-2-(7-((carboxyformamido)methyl)-4-(3,4-dimethylphenyl)-2-methyl-1-oxo-1,2-dihydroisoquinolin-3-yl)acetic acid]",50
25,"Cc1ccc(-c2c(C(OC(C)(C)C)C(=O)O)n(C)c(=O)c3cc(CNS(C)(=O)=O)ccc23)cc1C (stereo not drawn) [Example 187, 2-(tert-butoxy)-2-(4-(3,4-dimethylphenyl)-2-methyl-7-(methylsulfonamidomethyl)-1-oxo-1,2-dihydroisoquinolin-3-yl)acetic acid]",22.9
26,"Cc1ccc(-c2c(C(OC(C)(C)C)C(=O)O)n(C)c(=O)c3cc(CNS(=O)(=O)N(C)C)ccc23)cc1C (stereo not drawn) [Example 188, 2-(tert-butoxy)-2-(4-(3,4-dimethylphenyl)-7-(((N,N-dimethylsulfamoyl)amino)methyl)-2-methyl-1-oxo-1,2-dihydroisoquinolin-3-yl)acetic acid]",3.7
27,"Cc1ccc(-c2c(C(OC(C)(C)C)C(=O)O)n(C)c(=O)c3cc(-c4cccn4C)ccc23)cc1C (stereo not drawn) [Example 191, [(1,1′-dimethylethyl)oxy][4-(3,4-dimethylphenyl)-2-methyl-7-(1-methyl-1H-pyrrol-2-yl)-1-oxo-1,2-dihydro-3-isoquinolinyl]acetic acid]",0.35

# Same assay, conditions: read-out: HIV MT4 Assay IC50; HTLV-1 transformed cell line MT-4; 96 hours; cell titer glo; 10 point dose response curve
row,SMILES,IC50 [µM]
1,"Cc1c(-c2c([C@@H](OC(C)(C)C)C(=O)O)n(C)c(=O)c3ccccc23)cc(F)c2c1CCCO2 [Example 160, (2R)-2-(tert-butoxy)-2-[4-(8-fluoro-5-methyl-3,4-dihydro-2H-1-benzopyran-6-yl)-2-methyl-1-oxo-1,2-dihydroisoquinolin-3-yl]acetic acid]",41.6
2,"Cc1c(-c2c([C@@H](OC(C)(C)C)C(=O)O)n(C)c(=O)c3ccccc23)cc(F)c2c1CCCO2 [Example 161, (2R)-2-(tert-butoxy)-2-[4-(8-fluoro-5-methyl-3,4-dihydro-2H-1-benzopyran-6-yl)-2-methyl-1-oxo-1,2-dihydroisoquinolin-3-yl]acetic acid]",7.21
3,"Cc1c(-c2c([C@H](OC(C)(C)C)C(=O)O)n(C)c(=O)c3ccccc23)cc(F)c2c1CCCO2 [Example 162, (2S)-2-(tert-butoxy)-2-[4-(8-fluoro-5-methyl-3,4-dihydro-2H-1-benzopyran-6-yl)-2-methyl-1-oxo-1,2-dihydroisoquinolin-3-yl]acetic acid]",4.19
